Literature values, collected in patent publication US10583101B2 (EMCURE PHARMACEUTICALS LIMITED, priority 2016, dated 2020).

For `O=NN(CCCl)C(=O)NCCCl` [Carmustine, 1,3-bis (2-chloroethyl)-1-nitrosourea], the “solubility in alcohol and lipids” value (alcohol and lipids) is listed as “highly soluble in alcohol and lipids” and the solubility in water (water) is listed as “poorly soluble in water”.
